Reference: US9421356B2, “Transdermal methods and systems for the delivery of corticosteroid compounds” (priority 2007, dated 2016)
Like-named read-outs stand apart in the source and are kept apart here.

Tests used:
[1] = Systemic delivery study: plasma pharmacokinetics after iontophoretic patch or subcutaneous injection; format: in vivo, domestic swine; conditions: subcutaneous 6 mg; for Cmax / half-life / AUC(0-t): pig, sc; for half-life: read-out: t½ (converted)
Description: The purpose of the study was to determine the systemic plasma exposure, absorption characteristics and elimination characteristics of the active agent Dexamethasone sodium phosphate, (DexP) when administered from either a subcutaneous injection or an iontophoretic patch in domestic swine.
The patch is an active (iontophoretic) drug delivery patch which employs a low-level electrical field produced by a novel power source incorporated into the patch to “drive” the drug into the body in a pain-free manner. This system has advantages over passive patches, including more rapid and controlled delivery and the ability to deliver a wider variety of drugs.
The study entailed administration of DexP from three concurrently applied patches delivered at 150 μA, 225 μA and 300 μA over a 9 hour period in 1 male and 1 female domestic swine. Each patch contained a 10 mg/ml Dexamethasone sodium phosphate gel (2% HPMC) in the donor cell compartment, and a 0.9% saline gel (2% HPMC) in the return cell compartment. As a comparator, a subcutaneous 6 mg dose of DexP was delivered to 1 male and 1 female domestic swine. All animals were implanted with a central venous access port (Hickman catheter) prior to administration of the drug and plasma samples were obtained pre-dosing and up to 24 hours after dosing. Samples were analyzed for the presence of dexamethasone phosphate and the data tabulated and selected pharmacokinetic parameters were calculated.

[2] = iontophoresis of 4 mg/ml solution, charge dosage 40-80 mA-minutes, cited from earlier work
[3] = in vivo, female swine (animal 8P168)
[4] = in vivo, male swine (animal 8P167)

| Compound | Cmax [1, 3] | half-life [1, 3] | Cmax [1, 4] | AUC(0-t) ([1]; in vivo, male swine (animal 8P167), read-out: AUC(0-12)) | half-life [1, 4] | AUC(0-t) ([1]; plasma, female swine, read-out: AUC(0-14)) | AUC(0-12) ([1]; female swine (animal 8P168)) | amount of dexamethasone delivered (highest estimate) ([2]; J Pharm Compounding 2003) | amount of dexamethasone delivered (lowest estimate) ([2]; Petelenz 1992) |
| --- | --- | --- | --- | --- | --- | --- | --- | --- | --- |
| C[C@@H]1C[C@H]2[C@@H]3CCC4=CC(=O)C=C[C@]4(C)[C@@]3(F)[C@@H](O)C[C@]2(C)[C@@]1(O)C(=O)COP(=O)(O)O [DexP, Dexamethasone sodium phosphate] | 27.3 ng/mL | 1.5 h | 28.4 ng/mL | 36.4 ng·h/mL | 0.85 h | 60.5 ng·h/mL | 60.5 ng·h/mL |  |  |
| C[C@@H]1C[C@H]2[C@@H]3CCC4=CC(=O)C=C[C@]4(C)[C@@]3(F)[C@@H](O)C[C@]2(C)[C@@]1(O)C(=O)CO [dexamethasone] |  |  |  |  |  |  |  | 1.4 milligrams | 10 micrograms |
